Where “and” joins values, the source holds several entries; their conditions need not be identical. Equal entries are not always repeated.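 Results reflect a 48-hour exposure of cells in 96-well plates to compound at five concentrations. GI50 marks 50% less growth. TGI denotes the concentration required for complete inhibition of growth.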
Experiments:
Experiment in all cases: NCI-60 cell line screen, 48 h
OVCAR-3 ovarian = system: OVCAR-3 ovarian
RXF 393 renal = system: RXF 393 renal
BT-549 breast = system: BT-549 breast
A549 NSCLC = system: A549 NSCLC
ACHN renal = system: ACHN renal
HL-60(TB) leukemia = system: HL-60(TB) leukemia
MDA-MB-435 = system: MDA-MB-435
PC-3 prostate = system: PC-3 prostate
HCT-116 colon = system: HCT-116 colon
HCC-2998 colon = system: HCC-2998 colon

Compound: CCCCNC1CCC2(SCCS2)c2[nH]c3ccccc3c21 (stereo not drawn)
- TGI (OVCAR-3 ovarian): 46.7 µM
- TGI (RXF 393 renal): > 64.3 µM
- TGI (BT-549 breast): > 100 µM
- TGI (A549 NSCLC): > 100 µM
- TGI (ACHN renal): > 100 µM
- TGI (HL-60(TB) leukemia): 8.05 µM
- TGI (MDA-MB-435): > 49.6 µM
- TGI (PC-3 prostate): > 67.3 µM
- TGI (HCT-116 colon): 50.1 µM
- TGI (HCC-2998 colon): 38.8 µM

Compound: O=S(=O)(Oc1ccc2oc3ccccc3c2c1-c1c(OS(=O)(=O)C(F)(F)F)ccc2oc3ccccc3c12)C(F)(F)F
- TGI (OVCAR-3 ovarian): > 100 µM
- TGI (RXF 393 renal): > 100 µM
- TGI (BT-549 breast): > 100 µM
- TGI (A549 NSCLC): > 100 µM
- TGI (ACHN renal): > 100 µM
- TGI (HL-60(TB) leukemia): > 100 µM
- TGI (MDA-MB-435): > 100 µM
- TGI (PC-3 prostate): > 100 µM
- TGI (HCT-116 colon): > 100 µM
- TGI (HCC-2998 colon): > 100 µM

Compound: O=c1cc(CNC2CCCC2)[nH]c(=O)[nH]1
- TGI (OVCAR-3 ovarian): > 100 µM
- TGI (RXF 393 renal): > 100 µM
- TGI (BT-549 breast): > 100 µM
- TGI (A549 NSCLC): > 100 µM
- TGI (ACHN renal): > 100 µM
- TGI (HL-60(TB) leukemia): > 100 µM
- TGI (MDA-MB-435): > 100 µM
- TGI (PC-3 prostate): > 100 µM
- TGI (HCT-116 colon): > 100 µM
- TGI (HCC-2998 colon): > 100 µM

Compound: O=C1Oc2ccccc2C(=O)/C1=C/N1C(=O)N/C(=C\c2ccccc2O)C1=O
- TGI (OVCAR-3 ovarian): > 100 µM
- TGI (RXF 393 renal): > 100 µM
- TGI (BT-549 breast): > 100 µM
- TGI (A549 NSCLC): > 100 µM
- TGI (ACHN renal): > 100 µM
- TGI (HL-60(TB) leukemia): > 100 µM
- TGI (MDA-MB-435): > 100 µM
- TGI (PC-3 prostate): > 100 µM
- TGI (HCT-116 colon): > 100 µM
- TGI (HCC-2998 colon): > 100 µM

Compound: C1=C\SS/C=C\SS/C=C\SS/C=C\SS/1
- TGI (RXF 393 renal): > 100 µM
- TGI (BT-549 breast): > 100 µM
- TGI (A549 NSCLC): > 100 µM
- TGI (ACHN renal): > 100 µM
- TGI (HL-60(TB) leukemia): 58.1 µM
- TGI (MDA-MB-435): > 100 µM
- TGI (PC-3 prostate): > 100 µM
- TGI (HCT-116 colon): > 100 µM
- TGI (HCC-2998 colon): > 100 µM

Compound: CC[C@@]1(O)C(=O)OCc2c1cc1n(c2=O)Cc2c-1nc1ccccc1c2/C=N\NC(=O)C(N)CC(C)C (stereo partly drawn)
- TGI (OVCAR-3 ovarian): 2.3 µM
- TGI (RXF 393 renal): 0.154 µM
- TGI (BT-549 breast): > 100 µM
- TGI (A549 NSCLC): 2.16 µM
- TGI (HL-60(TB) leukemia): > 100 µM
- TGI (MDA-MB-435): 2.8 µM
- TGI (PC-3 prostate): > 100 µM
- TGI (HCT-116 colon): 5.37 µM
- TGI (HCC-2998 colon): 6.17 µM

Compound: Cc1ccc(S(=O)(=O)c2scc(-c3ccccc3)c2C)cc1
- TGI (OVCAR-3 ovarian): > 100 µM
- TGI (RXF 393 renal): > 100 µM
- TGI (BT-549 breast): > 100 µM
- TGI (A549 NSCLC): > 100 µM
- TGI (ACHN renal): > 100 µM
- TGI (HL-60(TB) leukemia): > 100 µM
- TGI (MDA-MB-435): > 100 µM
- TGI (PC-3 prostate): > 100 µM
- TGI (HCT-116 colon): > 100 µM
- TGI (HCC-2998 colon): > 100 µM

Compound: COc1ccc2oc(=N)c(C(=O)Nc3cccc4ccccc34)cc2c1
- TGI (OVCAR-3 ovarian): 30.8 µM
- TGI (RXF 393 renal): 20 µM
- TGI (BT-549 breast): > 100 µM
- TGI (A549 NSCLC): > 100 µM
- TGI (ACHN renal): > 100 µM
- TGI (HL-60(TB) leukemia): > 100 µM
- TGI (MDA-MB-435): 11.1 µM
- TGI (PC-3 prostate): 31.1 µM
- TGI (HCT-116 colon): > 100 µM
- TGI (HCC-2998 colon): > 100 µM

Compound: O=c1[nH]c(=O)n(C2CC(O)C(CO)O2)cc1I (stereo not drawn)
- TGI (OVCAR-3 ovarian): > 100 µM
- TGI (RXF 393 renal): > 100 µM
- TGI (BT-549 breast): > 100 µM
- TGI (A549 NSCLC): > 100 µM
- TGI (ACHN renal): > 100 µM
- TGI (HL-60(TB) leukemia): > 100 µM
- TGI (MDA-MB-435): > 100 µM
- TGI (PC-3 prostate): > 100 µM
- TGI (HCT-116 colon): > 100 µM
- TGI (HCC-2998 colon): > 100 µM

Compound: CCOC(=O)c1cccc(NC(=O)CCl)c1
- TGI (OVCAR-3 ovarian): 4.44 µM
- TGI (RXF 393 renal): 9.9 µM
- TGI (BT-549 breast): 17.9 µM
- TGI (A549 NSCLC): 29.8 µM
- TGI (ACHN renal): 9.19 µM
- TGI (HL-60(TB) leukemia): 13.2 µM
- TGI (MDA-MB-435): 7.41 µM
- TGI (PC-3 prostate): 18.1 µM
- TGI (HCT-116 colon): 8.29 µM
- TGI (HCC-2998 colon): 7.93 µM

Compound: O=C(Cc1ccccc1)NCCc1ccc(O)c(O)c1
- TGI (OVCAR-3 ovarian): > 100 µM
- TGI (RXF 393 renal): > 100 µM
- TGI (BT-549 breast): > 100 µM
- TGI (A549 NSCLC): > 100 µM
- TGI (ACHN renal): > 100 µM
- TGI (HL-60(TB) leukemia): 51.9 µM
- TGI (MDA-MB-435): 33.8 µM
- TGI (PC-3 prostate): > 100 µM
- TGI (HCT-116 colon): > 100 µM
- TGI (HCC-2998 colon): > 100 µM

Compound: O=C1NC(N/N=C\C(O)C(O)C(O)CO)=N/C1=C/c1ccccc1 (stereo not drawn)
- GI50 (OVCAR-3 ovarian): > 100 µM and 47.6 µM
- TGI (OVCAR-3 ovarian): > 100 µM
- TGI (RXF 393 renal): > 100 µM
- GI50 (BT-549 breast): > 100 µM and 27.4 µM
- TGI (BT-549 breast): > 100 µM and 99.8 µM
- TGI (A549 NSCLC): > 100 µM
- TGI (ACHN renal): > 100 µM
- GI50 (HL-60(TB) leukemia): > 100 µM and 41.2 µM
- TGI (HL-60(TB) leukemia): > 100 µM
- GI50 (MDA-MB-435): > 100 µM and 49.6 µM
- TGI (MDA-MB-435): > 100 µM
- GI50 (PC-3 prostate): > 100 µM and 48.9 µM
- TGI (PC-3 prostate): > 100 µM
- GI50 (HCT-116 colon): > 100 µM and 37.5 µM
- TGI (HCT-116 colon): > 100 µM
- TGI (HCC-2998 colon): > 100 µM

Compound: C=CCNC(=S)Nc1sc2c(c1C(=O)OCC)CC(C)CC2 (stereo not drawn)
- TGI (OVCAR-3 ovarian): 50.1 µM
- TGI (RXF 393 renal): 83.9 µM
- TGI (BT-549 breast): > 100 µM
- TGI (A549 NSCLC): 60.8 µM
- TGI (ACHN renal): 53.6 µM
- TGI (HL-60(TB) leukemia): 14.7 µM
- TGI (MDA-MB-435): > 100 µM
- TGI (PC-3 prostate): 50 µM
- TGI (HCT-116 colon): 66.3 µM
- TGI (HCC-2998 colon): 44.1 µM

Compound: O=C1N[C@H]2c3c(Cl)sc(Cl)c3/C(=N/O)[C@H]2O1
- TGI (OVCAR-3 ovarian): > 100 µM
- TGI (RXF 393 renal): > 100 µM
- TGI (BT-549 breast): > 100 µM
- TGI (A549 NSCLC): > 100 µM
- TGI (ACHN renal): > 100 µM
- TGI (HL-60(TB) leukemia): 57.9 µM
- TGI (MDA-MB-435): > 100 µM
- TGI (PC-3 prostate): > 100 µM
- TGI (HCT-116 colon): > 100 µM
- TGI (HCC-2998 colon): > 100 µM

Compound: COc1c2cc([N+](=O)[O-])cc1CNC(=O)CN1CCOCCOCCN(CCOCCOCC1)CC(=O)NC2
- TGI (OVCAR-3 ovarian): > 100 µM
- TGI (RXF 393 renal): > 100 µM
- TGI (BT-549 breast): > 100 µM
- TGI (A549 NSCLC): > 100 µM
- TGI (ACHN renal): > 100 µM
- TGI (HL-60(TB) leukemia): > 100 µM
- TGI (MDA-MB-435): > 100 µM
- TGI (PC-3 prostate): > 100 µM
- TGI (HCT-116 colon): > 100 µM
- TGI (HCC-2998 colon): > 100 µM

Compound: COCOc1ccc(C(=O)C(C)c2ccc(OCOC)cc2OCOC)c(O)c1 (stereo not drawn)
- TGI (RXF 393 renal): > 100 µM
- TGI (BT-549 breast): > 100 µM
- TGI (A549 NSCLC): > 100 µM
- TGI (ACHN renal): > 100 µM
- TGI (HL-60(TB) leukemia): > 100 µM
- TGI (MDA-MB-435): > 100 µM
- TGI (PC-3 prostate): > 100 µM
- TGI (HCT-116 colon): > 100 µM
- TGI (HCC-2998 colon): > 100 µM

Compound: CN(C)CCNc1ccc(C(=O)NCCCN(C)CCCNC(=O)c2ccc(NCCN(C)C)c3c(=O)c4ccccc4[nH]c23)c2[nH]c3ccccc3c(=O)c12
- TGI (OVCAR-3 ovarian): 7.5 µM
- TGI (RXF 393 renal): 0.912 µM
- TGI (BT-549 breast): 0.971 µM
- TGI (A549 NSCLC): 0.318 µM
- TGI (ACHN renal): 6.24 µM
- TGI (HL-60(TB) leukemia): 2.74 µM
- TGI (MDA-MB-435): 0.286 µM
- TGI (PC-3 prostate): 3.44 µM
- TGI (HCT-116 colon): 0.409 µM
- TGI (HCC-2998 colon): 0.135 µM
